One block for each compound: values may come before it.
Key:
[1] = tested on: purified recombinant COX-1; test: COX-1 enzyme based assay; assay type: biochemical
Protocol: COX-1 and COX-2 enzyme based assays were carried out to check the inhibitory potential of the test compounds on the production of prostaglandin by purified recombinant COX-1/COX-2 enzyme (Proc. Nat. Acad. Sci. USA, 88, 2692-2696, 1991; J. Clin. Immunoassay 15, 116-120, 1992). In this assay, the potential of the test compound to inhibit the production of prostaglandin either by COX-1 or COX-2 from arachidonic acid (substrate) was measured. This was an enzyme based in-vitro assay to evaluate selective COX inhibition with good reproducibility.
Arachidonic acid was converted to PGH2 (Intermediate product) by COX1/COX-2 in the presence or absence of the test compound. The reaction was carried out at 37° C. and after 2 minutes it was stopped by adding 1M HCl. Intermediate product PGH2 was converted to a stable prostanoid product PGF2α by SnCl2 reduction. The amount of PGF2α produced in the reaction was inversely proportional to the COX inhibitory potential of the test compound. The prostanoid product was quantified via enzyme immunoassay (EIA) using a broadly specific antibody that binds to all the major forms of prostaglandin, using Cayman ELISA kit as per the procedure outlined by the manufacturer (Cayman Chemicals, Ann Arbor, USA).

[2] = tested on: ulcer formation; test: Ulcerogenic potential; assay type: in vivo, male wistar; conditions: oral, 4 hours after administration
Protocol: Ulcerogenic Potential In order to evaluate the compound's role on the ulcer formation, the animals were sacrificed and the stomach was taken out and flushed with 1% formalin. Animals (male wistar 200 g) were fasted for 18 hours with free access to water and the test compounds were suspended in 0.5% Tween 80 and 0.25% CMC (carboxymethylcellulose) solution to make a uniform suspension. After 4 hours of oral administration of test compounds, all the animals were sacrificed by cervical dislocation. The stomach was dissected carefully and filled up with a sterile saline solution and embedded in 6% formalin solution. […] The test compound treated groups were compared with the vehicle treated groups. […]

[3] = tested on: T1, PDE4; test: PDE4 activity (source human U937 cells); assay type: biochemical; conditions: 10 μM, source human U937 cells
T1 construct: other: 10 μM, source human U937 cells; PDE4 at 10 μm
Protocol: PDE4 inhibition was measured by following a literature assay procedure (Cortizo J et al., Br J. Pharmacol., 1993, 108: 562-568. The assay method involves the following conditions.
Substrate: 1.01 μM [^3H] camp+camp
Pre-Incubation Time/Temperature: 15 minutes at 25° C.
Incubation Time/Temperature. 20 minutes at 25° C.
Incubation buffer: 50 mM Tris-HCl, pH 7.5, 5 mM MgCl2
Quantitation method: Quantitation of [^3H] Adenosine
Significance criteria: ≧50% of max stimulation or inhibition

Compound: CNS(=O)(=O)c1ccc(-c2c(N)nc(C(F)(F)F)nc2-c2ccc(S(C)(=O)=O)cc2)cc1 [Example 2, 4-{4-Amino-6-[4-(methylsulfonyl)phenyl]-2-(trifluoromethyl)pyrimidin-5-yl}-N-methylbenzenesulfonamide]
% Inhibition in rEnzyme Assay COX-1 ([1]; 1 μM): 33.84% | % Inhibition in rEnzyme Assay COX-1 ([1]; 10 μM): 50.41%

Compound: CNS(=O)(=O)c1ccc(-c2c(Cl)nc(C(F)(F)F)nc2-c2ccc(S(C)(=O)=O)cc2)cc1 [Example 4, 4-{4-chloro-6-[4-(methylsulfonyl)phenyl]-2-(trifluoromethyl)pyrimidin-5-yl}-N-methylbenzenesulfonamide]
Ulcer incidence at 5 mg/kg [2]: Nil | melting point: 226 to 230 °C

Compound: CNc1nc(C(F)(F)F)nc(-c2ccc(S(C)(=O)=O)cc2)c1-c1ccc(S(=O)(=O)NC)cc1 [Example 5, 4-{4-(Methylamino)-6-[4-(methylsulfonyl)phenyl]-2-(trifluoromethyl)pyrimidin-5-yl}-N-methylbenzenesulfonamide]
Ulcer incidence at 5 mg/kg [2]: Nil

Compound: CS(=O)(=O)c1ccc(-c2nc(C(F)(F)F)nc(NN)c2-c2ccc(S(=O)(=O)NN)cc2)cc1 [Example 7, 4-{4-hydrazino-6-[4-(methylsulfonyl)phenyl]-2-(trifluoromethyl)pyrimidin-5-yl}benzenesulfonohydrazide]
melting point: 203 to 206 °C

Compound: O=C(NNc1nc(C(F)(F)F)nc(-c2ccncc2)c1-c1ccc(F)cc1)C(F)(F)F [Example 14, 2,2,2-trifluoro-N′-[5-(4-fluorophenyl)-6-pyridin-4-yl-2-(trifluoromethyl)pyrimidin-4-yl]acetohydrazide]
melting point: 240 to 242 °C

Compound: NS(=O)(=O)c1cccc(-c2c(-c3ccccc3)nc(C(F)(F)F)nc2N2CCNCC2)c1 [Example 51, 3-[4-Phenyl-6-piperazin-1-yl-2-(trifluoromethyl)pyrimidin-5-yl]benzenesulfonamide]
% Inhibition in rEnzyme Assay COX-1 ([1]; 1 μM): 8.27% | % Inhibition in rEnzyme Assay COX-1 ([1]; 10 μM): 7.1%

Compound: NS(=O)(=O)c1cccc(-c2c(-c3ccc(F)cc3)nc(C(F)(F)F)nc2N2CCN(c3ccccn3)CC2)c1 [Example 53, 3-[4-(4-Fluorophenyl)-6-(4-pyridin-2-ylpiperazin-1-yl)-2-(trifluoromethyl)pyrimidin-5-yl]benzenesulfonamide]
% Inhibition in rEnzyme Assay COX-1 ([1]; 1 μM): 46.29% | % Inhibition in rEnzyme Assay COX-1 ([1]; 10 μM): 56.85%

Compound: NS(=O)(=O)c1cccc(-c2c(-c3ccc(F)cc3)nc(C(F)(F)F)nc2N2CCN(c3ncccn3)CC2)c1 [Example 54, 3-[4-(4-Fluorophenyl)-6-(4-pyrimidin-2-ylpiperazin-1-yl)-2-(trifluoromethyl)pyrimidin-5-yl]benzenesulfonamide]
% Inhibition in rEnzyme Assay COX-1 ([1]; 1 μM): 34.42% | % Inhibition in rEnzyme Assay COX-1 ([1]; 10 μM): 45.53%

Compound: NS(=O)(=O)c1cccc(-c2c(-c3ccccc3)nc(C(F)(F)F)nc2N2CCN(c3ccccn3)CC2)c1 [Example 58]
% Inhibition in rEnzyme Assay COX-1 ([1]; 1 μM): 10.22% | % Inhibition in rEnzyme Assay COX-1 ([1]; 10 μM): 9.59%

Compound: NS(=O)(=O)c1cccc(-c2c(-c3ccc(F)cc3)nc(C(F)(F)F)nc2N2CCN(S(=O)(=O)C(F)(F)F)CC2)c1 [Example 77, 5-(3-Aminosulfonylphenyl)-4-(4-fluorophenyl)-2-(trifluoromethyl)-6-{4-[(trifluoromethyl)sulfonyl]piperazin-1-yl}pyrimidine]
PDE4 inhibition at 10 μM (%) [3]: 94%

Compound: N#CCCN1CCN(c2nc(C(F)(F)F)nc(-c3ccc(F)cc3)c2-c2cccc(S(N)(=O)=O)c2)CC1 [Example 100, 3-{4-[4-(2-cyanoethyl)piperazin-1-yl]-6-(4-fluorophenyl)-2-(trifluoromethyl)pyrimidin-5-yl}benzenesulfonamide]
PDE4 inhibition at 10 μM (%) [3]: 92%

Compound: NS(=O)(=O)c1cccc(-c2c(-c3ccc(F)cc3)nc(C(F)(F)F)nc2N2CCN(C(=O)C(F)(F)F)CC2)c1 [Example 109, 3-{6-(4-Fluorophenyl)-4-[4-(trifluoroacetyl)piperazin-1-yl]-2-(trifluoromethyl)pyrimidin-5-yl}benzenesulfonamide]
PDE4 inhibition at 10 μM (%) [3]: 90%

Compound: NS(=O)(=O)c1cccc(-c2nc(C(F)(F)F)nc(-n3ccnc3)c2-c2ccccc2)c1 [Example 167, 3-[4-(1H-imidazol-1-yl)-5-phenyl-2-(trifluoromethyl)pyrimidin-6-yl]benzenesulfonamide]
PDE4 inhibition at 10 μM (%) [3]: 82%

Compound: NS(=O)(=O)c1cccc(-c2c(-c3ccccc3)nc(C(F)(F)F)nc2N2CCN(C(=O)C(F)(F)F)CC2)c1 [Example 173, 3-{6-Phenyl-4-[4-(trifluoroacetyl)piperazin-1-yl]-2-(trifluoromethyl)pyrimidin-5-yl}benzenesulfonamide]
PDE4 inhibition at 10 μM (%) [3]: 87%

Compound: Fc1ccc(-c2nc(C(F)(F)F)nc(NC3CC3)c2-c2ccccc2)cc1 [Example 175, N-Cyclopropyl-6-(4-fluorophenyl)-5-phenyl-2-(trifluoromethyl)pyrimidin-4-amine]
PDE4 inhibition at 10 μM (%) [3]: 88%

Compound: NS(=O)(=O)c1cccc(-c2c(-c3ccccc3)nc(C(F)(F)F)nc2N2CCC(=O)CC2)c1 [Example 179, 3-[6-Phenyl-4-(4-oxopiperidin-1-yl)-2-(trifluoromethyl)pyrimidin-5-yl]benzenesulfonamide]
PDE4 inhibition at 10 μM (%) [3]: 84%

The next lines start with the values.

melting point: 207 to 210 °C
Compound: CS(=O)(=O)c1ccc(-c2nc(C(F)(F)F)nc(Cl)c2-c2ccc(S(=O)(=O)Cl)cc2)cc1 [Example 3, 4-{4-chloro-6-[4-(methylsulfonyl)phenyl]-2-(trifluoromethyl)pyrimidin-5-yl}benzenesulfonyl chloride]

melting point: 230 to 235 °C
Compound: CC(=O)NS(=O)(=O)c1ccc(-c2c(Cl)nc(C(F)(F)F)nc2-c2ccc(S(C)(=O)=O)cc2)cc1 [Example 17, N-[(4-{4-chloro-6-[4-(methylsulfonyl)phenyl]-2-(trifluoromethyl)pyrimidin-5-yl}phenyl)sulfonyl]acetamide]

melting point: 204 to 206 °C
Compound: CS(=O)(=O)c1ccc(-c2nc(C(F)(F)F)nc(OS(=O)(=O)c3cccc4ccccc34)c2-c2ccccc2)cc1 [Example 18, 6-[4-(methylsulfonyl)phenyl]-5-phenyl-2-(trifluoromethyl)pyrimidin-4-yl napthalenesulfonate]

melting point: 228 to 232 °C
Compound: CS(=O)(=O)c1ccc(-c2nc(C(F)(F)F)nc(N3CCN(Cc4ccncc4)CC3)c2-c2ccccc2)cc1 [Example 46, 4-[4-(Methylsulfonyl)phenyl]-5-phenyl-6-[4-(pyridin-4-ylmethyl)piperazin-1-yl]-2-(trifluoromethyl)pyrimidine]

melting point: 168 to 174 °C
Compound: CS(=O)(=O)c1ccc(-c2nc(C(F)(F)F)nc(N3CCN(Cc4ccc([N+](=O)[O-])s4)CC3)c2-c2ccccc2)cc1 [Example 47, 6-[4-(Methylsulfonyl)phenyl]-4-{4-[(5-nitro-2-thienyl)methyl]piperazin-1-yl}-5-phenyl-2-(trifluoromethyl)pyrimidine]

melting point: 165 to 167 °C
Compound: FC(F)(F)c1nc(-c2ccccc2)c(-c2ccccc2)c(N2CCN(c3ccccn3)CC2)n1 [Example 48, 4,5-diphenyl-6-(4-pyridin-2-yl-piperazin-1-yl)-2-(trifluoromethyl)pyrimidine]

melting point: 229 to 233 °C
Compound: CS(=O)(=O)c1ccc(-c2nc(C(F)(F)F)nc(N3CCN(c4ccccn4)CC3)c2-c2ccccc2)cc1 [Example 49, 4-[4-(Methylsulfonyl)phenyl]-5-phenyl-6-(4-pyridin-2-yl-piperazin-1-yl)-2-(trifluoromethyl)pyrimidine]

% Inhibition in rEnzyme Assay COX-1 ([1]; 10 μM): 5.7%
Compound: NS(=O)(=O)c1cccc(-c2c(-c3ccccc3)nc(C(F)(F)F)nc2N2CCN(c3ncccn3)CC2)c1 [Example 57]

% Inhibition in rEnzyme Assay COX-1 ([1]; 1 μM): 6.29% | % Inhibition in rEnzyme Assay COX-1 ([1]; 10 μM): 19.24%
Compound: NS(=O)(=O)c1cccc(-c2c(-c3ccccc3)nc(C(F)(F)F)nc2N2CCN(c3ccc(C(F)(F)F)cn3)CC2)c1 [Example 116, 3-[6-{4-[5-(trifluoromethyl)pyridin-2-yl]piperazin-1-yl}-4-phenyl-2-(trifluoromethyl)pyrimidin-4-yl]benzenesulfonamide]
